Results on 7 compounds are retold here after ChEMBL document CHEMBL1201862, “PubChem BioAssay data set” (2004).

Assay [1] addresses T1, Heat shock factor protein 1 (Mus musculus, UniProt P38532).
T1 sequence (P38532 whole entry): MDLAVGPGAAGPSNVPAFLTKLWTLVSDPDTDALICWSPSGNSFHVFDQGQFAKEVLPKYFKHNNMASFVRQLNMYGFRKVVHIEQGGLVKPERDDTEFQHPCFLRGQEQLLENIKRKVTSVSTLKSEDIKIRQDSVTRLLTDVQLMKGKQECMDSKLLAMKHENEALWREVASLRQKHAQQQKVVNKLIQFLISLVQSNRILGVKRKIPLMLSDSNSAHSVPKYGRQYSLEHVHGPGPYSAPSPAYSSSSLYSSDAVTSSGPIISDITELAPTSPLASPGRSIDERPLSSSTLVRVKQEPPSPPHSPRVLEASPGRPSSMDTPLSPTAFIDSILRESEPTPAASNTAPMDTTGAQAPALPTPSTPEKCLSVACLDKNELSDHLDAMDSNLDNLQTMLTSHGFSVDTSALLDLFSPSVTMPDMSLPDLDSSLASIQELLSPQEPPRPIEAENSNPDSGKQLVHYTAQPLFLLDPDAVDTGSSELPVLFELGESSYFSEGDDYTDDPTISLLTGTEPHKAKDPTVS
Kind of assay: enhancement of HSF1-driven luciferase signal – cell-based, NIH3T3, luminescence, dose retest, confirmation (AID 435004).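 Further: stress induced by proteasome inhibitor MG132 added 30 min after compound; luciferase reporter driven by HSF1 response element in NIH3T3 cells; actives raise luminescence as potentiators of the MG132 stress response.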 The assay is classed as functional.

Assay [2] in a line: Luminescence-based cell-based high throughput dose response assay to identify activators of the DAF-12 from the parasite S. stercoralis (ssDAF-12). Type of assay: functional.
The target in assay [3] is T2, Oxysterols receptor LXR-beta (Homo sapiens, UniProt P55055).
T2 sequence (P55055 whole entry): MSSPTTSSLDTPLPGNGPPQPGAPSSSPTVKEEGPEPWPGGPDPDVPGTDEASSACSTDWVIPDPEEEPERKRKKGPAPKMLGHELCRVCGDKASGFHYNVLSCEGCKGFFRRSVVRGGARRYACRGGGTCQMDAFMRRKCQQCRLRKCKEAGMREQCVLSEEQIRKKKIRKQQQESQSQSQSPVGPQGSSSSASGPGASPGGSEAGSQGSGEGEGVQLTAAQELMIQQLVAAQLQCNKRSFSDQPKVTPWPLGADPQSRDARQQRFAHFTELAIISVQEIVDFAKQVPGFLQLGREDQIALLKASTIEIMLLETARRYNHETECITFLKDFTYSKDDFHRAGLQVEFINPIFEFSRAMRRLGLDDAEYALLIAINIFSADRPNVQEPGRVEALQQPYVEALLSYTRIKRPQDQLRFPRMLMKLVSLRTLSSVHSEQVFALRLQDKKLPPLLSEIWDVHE
Kind of assay: LXR agonists, Gal4 luciferase reporter, dose response, counter-screen for ssDAF-12 agonist project, cell-based, luminescence, HEK293, S. stercoralis campaign (AID 720737). The assay is classed as functional. The settings on record: read-out: IC50 (the source's name).

A short description of assay [4]: HPDE-C7 pancreatic duct cell viability loss – fluorescence, HTS (AID 430). The assay is classed as functional, cell-based. The following applies: Homo sapiens.
Assay [5] in a line: viability loss of HPDE-C7K cells – cell-based, fluorescence, HTS, primary screen (AID 431). Type of assay: functional. The settings on record: Homo sapiens.
Assay [6] concerns the target Cytochrome P450 2C19 (Homo sapiens, UniProt P33261). Kind of assay: qHTS Assay for Inhibitors and Substrates of Cytochrome P450 2C19. [Related pubchem assays: 410 ]. The assay is classed as ADME. The settings on record: read-out: Potency.
Assay [7] addresses Cytochrome P450 2C9 (Homo sapiens, UniProt P11712). The following applies: Potency.
Assay [8] is described as follows: toxicity to human HepG2 hepatoma cells – cell-based, plate reader, dry powder samples, cytotoxicity control, dose response (AID 1159569).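 Further: inhibitor potency with signal falling toward the positive control level.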 Type of assay: functional.
A short description of assay [9]: P. falciparum Dd2 growth inhibitors, dose response, SYBR Green, cherry-picked samples (AID 1159567). Type of assay: functional, cell-based.
Assay [10] is described as follows: Dd2 malaria parasite growth inhibition potency – SYBR Green, dry powder samples, dose response (AID 1159566).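 Further: potency for growth inhibition with lower SYBR green DNA signal.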 The assay is classed as functional, cell-based.
Assay [11] in a line: growth inhibition of yeast DHODH-expressing 3D7 parasites – SYBR Green, dry powder samples, dose response (AID 1159570).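 Further: parasite growth measured after 72 hours of compound exposure.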 Type of assay: functional, cell-based.
Assay [12] can be described thus: growth inhibition of PfATP4-mutant resistant parasites – NITD609-resistant line, SYBR Green, dry powder, dose response (AID 1159571).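 Further: parasites synchronized at ring stage by sorbitol before testing.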 Type of assay: functional, cell-based.
For assay [13], the target named is T3, Mannose-6-phosphate isomerase (Homo sapiens, UniProt P34949).
T3 sequence (P34949 whole entry): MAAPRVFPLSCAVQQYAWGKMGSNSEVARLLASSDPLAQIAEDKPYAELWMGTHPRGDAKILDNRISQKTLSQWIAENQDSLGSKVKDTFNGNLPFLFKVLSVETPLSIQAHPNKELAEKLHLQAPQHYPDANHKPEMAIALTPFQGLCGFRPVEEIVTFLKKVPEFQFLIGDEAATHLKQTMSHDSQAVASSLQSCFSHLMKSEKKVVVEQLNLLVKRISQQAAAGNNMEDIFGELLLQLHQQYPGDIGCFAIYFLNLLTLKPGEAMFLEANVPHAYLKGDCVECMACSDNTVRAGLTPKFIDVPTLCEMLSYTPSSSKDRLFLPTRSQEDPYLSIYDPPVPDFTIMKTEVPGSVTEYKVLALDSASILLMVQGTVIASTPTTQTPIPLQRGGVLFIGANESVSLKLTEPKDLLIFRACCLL
Kind of assay: MPI inhibition at elevated mannose 6-phosphate – biochemical, fluorescence intensity, high mannose 6-phosphate, primary screen (AID 1220).

Assay [14] addresses T4, Replicative DNA helicase DnaB (Mycobacterium tuberculosis, UniProt P9WMR3).
T4 sequence (P9WMR3 whole entry): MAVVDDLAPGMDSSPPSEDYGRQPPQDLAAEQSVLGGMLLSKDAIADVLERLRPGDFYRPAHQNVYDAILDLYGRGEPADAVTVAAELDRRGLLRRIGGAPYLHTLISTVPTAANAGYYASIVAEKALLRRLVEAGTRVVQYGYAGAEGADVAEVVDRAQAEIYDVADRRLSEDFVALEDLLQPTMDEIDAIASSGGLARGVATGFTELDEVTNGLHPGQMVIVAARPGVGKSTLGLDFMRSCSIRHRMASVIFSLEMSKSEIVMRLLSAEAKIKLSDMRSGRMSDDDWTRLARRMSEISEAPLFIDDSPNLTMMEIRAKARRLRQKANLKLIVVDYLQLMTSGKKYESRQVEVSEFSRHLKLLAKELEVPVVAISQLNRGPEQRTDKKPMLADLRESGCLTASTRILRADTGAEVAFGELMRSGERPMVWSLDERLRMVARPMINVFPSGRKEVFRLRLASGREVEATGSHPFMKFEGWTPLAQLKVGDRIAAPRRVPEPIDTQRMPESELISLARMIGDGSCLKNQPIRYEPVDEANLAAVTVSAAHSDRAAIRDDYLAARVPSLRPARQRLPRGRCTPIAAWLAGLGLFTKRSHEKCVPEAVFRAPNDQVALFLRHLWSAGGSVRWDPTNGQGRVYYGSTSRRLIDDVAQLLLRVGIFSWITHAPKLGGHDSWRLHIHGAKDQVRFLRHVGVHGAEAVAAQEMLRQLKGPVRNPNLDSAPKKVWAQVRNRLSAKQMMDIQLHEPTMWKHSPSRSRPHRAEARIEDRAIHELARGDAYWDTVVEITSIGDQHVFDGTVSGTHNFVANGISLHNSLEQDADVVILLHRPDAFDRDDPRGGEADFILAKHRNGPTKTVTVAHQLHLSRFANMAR
Kind of assay: DnaB intein splicing inhibitors, dose response, biochemical, cell-free fluorescence (AID 449749). Type of assay: functional.

A short description of assay [15]: viability of PTEN-deleted HCT116 cells – cell-based, HCT116 PTEN knockout, dose response (AID 1047).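 Further: HCT116 colon tumor cells with PTEN knocked out; cells exposed to compound for 60 hours before readout; potency for loss of cell viability measured by luminescence.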 The assay is classed as functional.
Assay [16] in a line: viability of HCT116 lacking mutant beta-catenin – cell-based, human colon tumor, dose response (AID 1045).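 Further: HCT116 colon tumor cells with beta catenin knocked out; cells exposed to compound for 60 hours.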 The assay is classed as functional.
Assay [17] addresses T5, Protein RecA (Mycobacterium tuberculosis, UniProt P9WHJ3).
T5 sequence (P9WHJ3 whole entry): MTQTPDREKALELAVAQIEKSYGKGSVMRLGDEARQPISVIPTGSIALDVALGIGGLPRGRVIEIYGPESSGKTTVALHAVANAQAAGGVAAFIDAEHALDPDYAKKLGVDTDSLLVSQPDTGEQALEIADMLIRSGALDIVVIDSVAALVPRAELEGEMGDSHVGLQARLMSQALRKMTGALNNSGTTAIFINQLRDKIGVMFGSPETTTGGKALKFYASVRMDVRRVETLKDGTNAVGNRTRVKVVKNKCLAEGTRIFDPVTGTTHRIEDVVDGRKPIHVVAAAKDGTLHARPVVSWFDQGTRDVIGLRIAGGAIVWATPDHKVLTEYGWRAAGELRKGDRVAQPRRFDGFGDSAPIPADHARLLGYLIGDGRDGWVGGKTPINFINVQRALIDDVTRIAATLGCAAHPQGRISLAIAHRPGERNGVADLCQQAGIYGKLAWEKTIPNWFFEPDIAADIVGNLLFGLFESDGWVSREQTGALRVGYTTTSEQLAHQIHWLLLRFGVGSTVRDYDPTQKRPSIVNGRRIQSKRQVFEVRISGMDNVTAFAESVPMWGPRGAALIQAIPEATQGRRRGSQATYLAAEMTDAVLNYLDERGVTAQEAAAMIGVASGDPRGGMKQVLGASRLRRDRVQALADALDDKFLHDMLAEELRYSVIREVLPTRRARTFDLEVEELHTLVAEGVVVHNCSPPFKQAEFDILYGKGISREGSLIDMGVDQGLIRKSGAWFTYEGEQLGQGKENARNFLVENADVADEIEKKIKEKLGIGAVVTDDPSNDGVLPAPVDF
Kind of assay: Fluorescence Cell-Free Homogeneous Dose Retest to Identify Inhibitors of RecA-Intein Splicing Activity. [Related pubchem assays (depositor defined):AID2097, AID2223, AID489010, AID492950]. Type of assay: functional.

SMILES strings stand for the structures. Active and inactive are the calls of the source.

Sequence of Cytochrome P450 2C19 (P33261 whole entry): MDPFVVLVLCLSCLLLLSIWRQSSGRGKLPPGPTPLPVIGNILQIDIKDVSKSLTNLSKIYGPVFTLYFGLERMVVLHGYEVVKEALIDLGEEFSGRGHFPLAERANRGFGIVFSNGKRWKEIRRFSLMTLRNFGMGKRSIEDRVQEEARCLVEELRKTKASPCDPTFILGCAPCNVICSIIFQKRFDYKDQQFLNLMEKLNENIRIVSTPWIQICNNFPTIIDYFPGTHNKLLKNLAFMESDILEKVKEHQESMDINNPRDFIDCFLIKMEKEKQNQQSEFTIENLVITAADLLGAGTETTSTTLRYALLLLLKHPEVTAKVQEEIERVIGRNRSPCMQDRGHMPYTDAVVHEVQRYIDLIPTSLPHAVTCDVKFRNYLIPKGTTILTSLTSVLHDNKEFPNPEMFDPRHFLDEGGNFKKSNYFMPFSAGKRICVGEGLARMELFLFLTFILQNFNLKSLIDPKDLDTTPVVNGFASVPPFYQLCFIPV
Sequence of Cytochrome P450 2C9 (P11712 whole entry): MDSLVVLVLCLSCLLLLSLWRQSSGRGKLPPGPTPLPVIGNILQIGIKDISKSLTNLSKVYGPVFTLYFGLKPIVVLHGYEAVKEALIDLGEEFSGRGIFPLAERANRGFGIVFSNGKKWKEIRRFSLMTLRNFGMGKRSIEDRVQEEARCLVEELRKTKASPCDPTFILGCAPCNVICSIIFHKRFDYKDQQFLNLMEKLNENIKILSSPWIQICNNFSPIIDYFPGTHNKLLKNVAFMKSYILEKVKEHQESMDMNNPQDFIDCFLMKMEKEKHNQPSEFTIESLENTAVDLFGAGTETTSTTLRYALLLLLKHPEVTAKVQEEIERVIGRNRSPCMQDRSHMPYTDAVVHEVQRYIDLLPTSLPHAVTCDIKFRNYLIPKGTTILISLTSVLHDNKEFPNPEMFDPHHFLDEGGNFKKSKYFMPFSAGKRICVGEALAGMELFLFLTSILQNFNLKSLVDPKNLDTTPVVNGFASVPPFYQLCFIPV

Take `O=C(Nc1ccccn1)c1ccc2ccccc2n1`: the EC50 was > 260 µM (inactive) in [1] and > 67.5 µM (inactive) in assay [3]. For the same compound, the IC50 in assay [2] is > 67.5 µM (inactive).

`CC1(C)Cc2c(C#N)c(NCc3ccco3)nc(-c3ccco3)c2CO1`: the EC50 in assay [4] is 10.1 µM (active); in assay [5], > 20 µM (not active).

On to `NCCC[C@@H](CC(=O)N[C@@H]1CCNC[C@H]1C(=O)N[C@H](CC(=O)N[C@@H](CCC(=O)O)CC(=O)O)Cc1ccccc1)NC(=O)C[C@H](CO)NC(=O)[C@@H]1CNCC[C@H]1N`, for which the AC50 in assay [6] and in assay [7] was 15.8 µM (inconclusive) in each case.

Take `CC(=O)OCC1OC(c2cc(C)cc(C)c2)C=CC1OC(C)=O` (stereo not drawn): in assay [6], the AC50 is 2.51 µM (inconclusive).

Regarding `O=C(c1cccnc1)N1CC(=O)N2[C@H](C1)[C@@H](c1ccc(-c3cccnc3)cc1)[C@@H]2CO`, the AC50 in assay [8] was > 100 µM (inactive); in [9], 497 nM (active); in [10], 553 nM (active); in assay [11], 938 nM (active); in assay [12] it was 693 nM (active).

On to `CC(C)(C)[S@+]([O-])N1Cc2cc(C(=O)NCCN3CCCCC3)nc(-c3cccc(-c4cccc(C#N)c4)c3)c2[C@@H]1CCO`, for which the AC50 in [8] was 91.7 µM (active); in [9], 606 nM (active); in assay [10] it was 643 nM (active); in [11], 629 nM (active); in assay [12], 1800 nM (active).

As to `COc1ccc(C2NC(=O)NC3=C2CCc2ccccc23)cc1` (stereo not drawn), in assay [13], the IC50 was 46.8 µM (active). Besides, the AC50 in assay [14] was > 120 µM (inactive). The figures for the EC50 in [15], in assay [16] and in [17] were 8.31 µM (active), 9.83 µM (active) and 4.7 µM (active), respectively.
